Data taken from ChEMBL document CHEMBL1201862, “PubChem BioAssay data set” (2004).
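Five compound concentrations were applied to cells in 96-well plates for 48 hours; endpoints were derived by simple linear interpolation of the resulting dose-response curve. Abbreviation: GI50, concentration required for 50% inhibition of growth.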 Active and inactive are the calls of the source. No stated cut-off is given here; in the data, active = GI50 up to about 1.1 µM and inactive = higher.

Experiments:
Assay in all cases: inhibition of tumour cell growth, NCI panel, 48 h
ACHN = system: ACHN
COLO 205 = system: COLO 205
HCC 2998 = system: HCC 2998
HL-60 = system: HL-60
HT-29 = system: HT-29
IGROV-1 = system: IGROV-1
M14 = system: M14
MOLT-4 = system: MOLT-4
OVCAR-5 = system: OVCAR-5
RPMI-8226 = system: RPMI-8226
SF-295 = system: SF-295
SF-539 = system: SF-539
SK-MEL-28 = system: SK-MEL-28
U-251 = system: U-251
UACC-257 = system: UACC-257
EKVX = system: EKVX
HOP-62 = system: HOP-62

| SMILES | GI50 (ACHN) | GI50 (COLO 205) | GI50 (HCC 2998) | GI50 (HL-60) | GI50 (HT-29) | GI50 (IGROV-1) | GI50 (M14) | GI50 (MOLT-4) | GI50 (OVCAR-5) | GI50 (RPMI-8226) | GI50 (SF-295) | GI50 (SF-539) | GI50 (SK-MEL-28) | GI50 (U-251) | GI50 (UACC-257) | GI50 (EKVX) | GI50 (HOP-62) |
| --- | --- | --- | --- | --- | --- | --- | --- | --- | --- | --- | --- | --- | --- | --- | --- | --- | --- |
| C=C=C(Sc1ccccc1)C(C)(C)OC(C)=O | > 10 µM (inactive) | 18.4 µM (inactive) | 20.9 µM (inactive) | 26.7 µM (inactive) | 18.7 µM (inactive) | 17.6 µM (inactive) | 17.4 µM (inactive) | 34.5 µM (inactive) | 20.3 µM (inactive) | 30.7 µM (inactive) | 18.2 µM (inactive) | 16.1 µM (inactive) | 17.1 µM (inactive) | 16.9 µM (inactive) | 17.2 µM (inactive) |  |  |
| CC(C)(C)C(=O)N1C(C(=O)O)Cc2ccccc2[C@@H]1Cc1ccccc1 (some centres not stated) | > 100 µM (inactive) | > 100 µM (inactive) | > 100 µM (inactive) | > 100 µM (inactive) | > 100 µM (inactive) | > 100 µM (inactive) | > 100 µM (inactive) | > 100 µM (inactive) | > 100 µM (inactive) | > 100 µM (inactive) | > 100 µM (inactive) | > 100 µM (inactive) | > 100 µM (inactive) | > 100 µM (inactive) | > 100 µM (inactive) | > 100 µM (inactive) | > 100 µM (inactive) |
| O=C(O)C(SC(=S)c1ccc(C(=S)SC(C(=O)O)c2ccccc2)cc1)c1ccccc1 (configuration not stated) | > 100 µM (inactive) |  | > 100 µM (inactive) | > 100 µM (inactive) | 67.1 µM (inactive) | > 100 µM (inactive) | > 100 µM (inactive) | > 100 µM (inactive) | > 100 µM (inactive) | 42.8 µM (inactive) | > 100 µM (inactive) | > 100 µM (inactive) | 99.3 µM (inactive) | > 100 µM (inactive) | > 100 µM (inactive) |  | > 100 µM (inactive) |
| O=C(O)C1CC2C=CCC(C2)C1 (configuration not stated) | > 100 µM (inactive) | > 100 µM (inactive) |  | > 100 µM (inactive) | > 100 µM (inactive) | > 100 µM (inactive) | > 100 µM (inactive) | > 100 µM (inactive) | > 100 µM (inactive) | > 100 µM (inactive) | > 100 µM (inactive) |  | > 100 µM (inactive) | > 100 µM (inactive) | > 100 µM (inactive) | > 100 µM (inactive) | > 100 µM (inactive) |
| C[N+](C)(C)CC1CCC(C[N+](C)(C)C)C1=NO (configuration not stated) | > 100 µM (inactive) | > 100 µM (inactive) |  | > 100 µM (inactive) | > 100 µM (inactive) | > 100 µM (inactive) | > 100 µM (inactive) | > 100 µM (inactive) |  | > 100 µM (inactive) | > 100 µM (inactive) | > 100 µM (inactive) | > 100 µM (inactive) | > 100 µM (inactive) | > 100 µM (inactive) | > 100 µM (inactive) | > 100 µM (inactive) |
| CC(C)OP(=O)(OC(C)C)/C(F)=N/Nc1ccc([N+](=O)[O-])cc1 | > 100 µM (inactive) | > 100 µM (inactive) | > 100 µM (inactive) | > 100 µM (inactive) | > 100 µM (inactive) | > 100 µM (inactive) | > 100 µM (inactive) | > 100 µM (inactive) | > 100 µM (inactive) | > 100 µM (inactive) | > 100 µM (inactive) | > 100 µM (inactive) | > 100 µM (inactive) | > 100 µM (inactive) | > 100 µM (inactive) | > 100 µM (inactive) | > 100 µM (inactive) |
| C1CCCCc2nc3c(nc2CCC1)c1nc2c(nc1c1nc4c(nc31)CCCCCCCC4)CCCCCCCC2 | > 100 µM (inactive) | > 100 µM (inactive) | > 100 µM (inactive) | > 100 µM (inactive) | > 100 µM (inactive) | > 100 µM (inactive) | > 100 µM (inactive) | > 100 µM (inactive) | > 100 µM (inactive) |  | > 100 µM (inactive) | > 100 µM (inactive) | > 100 µM (inactive) | > 100 µM (inactive) | > 100 µM (inactive) |  | 82.6 µM (inactive) |
| CCN(CC)c1c(C(=O)/C=C/c2ccc(Cl)cc2)c(-c2ccccc2)nn(C)c1=O | 1.87 µM (inactive) | 2.03 µM (inactive) | 1.85 µM (inactive) | 1.19 µM (inactive) | 1.77 µM (inactive) | 2.03 µM (inactive) | 2.08 µM (inactive) | 2.12 µM (inactive) | 1.74 µM (inactive) | 2.25 µM (inactive) | 1.85 µM (inactive) |  | 1.62 µM (inactive) | 1.76 µM (inactive) | 1.93 µM (inactive) | 2.07 µM (inactive) | 2.12 µM (inactive) |
| C1=CCN(c2ccccc2)CC1 | 21.5 µM (inactive) | 34.5 µM (inactive) | 49.9 µM (inactive) | 11.9 µM (inactive) | 23.6 µM (inactive) | 29.9 µM (inactive) | 19.9 µM (inactive) | 5.69 µM (inactive) | > 100 µM (inactive) | 2.48 µM (inactive) | > 100 µM (inactive) | 43.5 µM (inactive) | 24.8 µM (inactive) | > 100 µM (inactive) | 28.4 µM (inactive) | 97.1 µM (inactive) |  |
| O=C(O)/C(O)=C1/C=C(c2ccccc2)c2ccccc21 | 30.1 µM (inactive) | 18 µM (inactive) | 21.5 µM (inactive) | 19.9 µM (inactive) | 33.1 µM (inactive) | 22.1 µM (inactive) | 21.1 µM (inactive) | 14.8 µM (inactive) | 23.6 µM (inactive) | 19.4 µM (inactive) | 18.8 µM (inactive) | 29.9 µM (inactive) |  | 18.7 µM (inactive) | 20.8 µM (inactive) |  | 25.4 µM (inactive) |
| CC(C)=CCC/C(C)=C/CC/C(C)=C/C(O)c1ccccc1 (configuration not stated) | 17.4 µM (inactive) | 18.5 µM (inactive) |  | 22.5 µM (inactive) | 18.4 µM (inactive) | 19.8 µM (inactive) | 18.3 µM (inactive) |  | 18.3 µM (inactive) | 18.7 µM (inactive) | 18.1 µM (inactive) |  |  | 18.2 µM (inactive) | 18.2 µM (inactive) | 20.1 µM (inactive) | 19.1 µM (inactive) |
| CCCCCCCCCCNCCSSCc1ccc(Cl)cc1 | 4.68 µM (inactive) | 2.39 µM (inactive) | 1.89 µM (inactive) | 1.75 µM (inactive) | 1.77 µM (inactive) | 2.94 µM (inactive) | 0.233 µM (active) | 0.439 µM (active) | 1.91 µM (inactive) |  | 1.91 µM (inactive) | 1.95 µM (inactive) | 0.366 µM (active) | 3.27 µM (inactive) | 0.714 µM (active) | 3.06 µM (inactive) |  |
| CC1SC2=NC3=C(c4ccccc4C3=O)C(c3ccccc3Cl)N2C1=O (configuration not stated) | > 100 µM (inactive) | > 100 µM (inactive) | > 100 µM (inactive) | > 100 µM (inactive) | > 100 µM (inactive) | > 100 µM (inactive) | > 100 µM (inactive) | 75 µM (inactive) | > 100 µM (inactive) | 58.5 µM (inactive) | > 100 µM (inactive) | > 100 µM (inactive) | > 100 µM (inactive) | > 100 µM (inactive) | > 100 µM (inactive) | > 100 µM (inactive) | > 100 µM (inactive) |
| COC1=CC(=O)OC(/C=C(C)/C=C/C2=C(C)CCCC2(C)C)C1 (configuration not stated) | > 100 µM (inactive) |  | > 100 µM (inactive) | > 100 µM (inactive) | > 100 µM (inactive) | > 100 µM (inactive) | > 100 µM (inactive) | > 100 µM (inactive) | > 100 µM (inactive) |  | > 100 µM (inactive) | > 100 µM (inactive) | > 100 µM (inactive) | > 100 µM (inactive) | > 100 µM (inactive) | > 100 µM (inactive) | > 100 µM (inactive) |
| COc1ccc(-c2cc(N3CCN(c4ccccc4)CC3)c(C#N)c(=O)o2)cc1 | 28.6 µM (inactive) | > 100 µM (inactive) | 65.6 µM (inactive) | 60.7 µM (inactive) | > 100 µM (inactive) | 24.8 µM (inactive) | > 100 µM (inactive) | > 100 µM (inactive) | > 100 µM (inactive) | 62.5 µM (inactive) | 14.3 µM (inactive) | 11.3 µM (inactive) | 15.6 µM (inactive) | 37.6 µM (inactive) | 50.1 µM (inactive) | 23.8 µM (inactive) |  |
| N#CC(C#N)=C1CCC2C(=C(C#N)C#N)CCC12 (configuration not stated) |  | > 100 µM (inactive) | > 100 µM (inactive) | > 100 µM (inactive) | > 100 µM (inactive) | > 100 µM (inactive) | > 100 µM (inactive) | > 100 µM (inactive) | > 100 µM (inactive) | > 100 µM (inactive) | > 100 µM (inactive) | > 100 µM (inactive) |  | > 100 µM (inactive) | > 100 µM (inactive) | > 100 µM (inactive) | > 100 µM (inactive) |
| Nc1nc(NC2C=C(CO)C(O)C2O)c([N+](=O)[O-])c(=O)[nH]1 (configuration not stated) | > 100 µM (inactive) | > 100 µM (inactive) | > 100 µM (inactive) |  | > 100 µM (inactive) | > 100 µM (inactive) | > 100 µM (inactive) | > 100 µM (inactive) | > 100 µM (inactive) |  | > 100 µM (inactive) | > 100 µM (inactive) | > 100 µM (inactive) | > 100 µM (inactive) | > 100 µM (inactive) | > 100 µM (inactive) | > 100 µM (inactive) |
| CSc1nc2c(nc(N)n2C2OCC(O)C(O)C2O)c(=O)[nH]1 (configuration not stated) | > 100 µM (inactive) | > 100 µM (inactive) | > 100 µM (inactive) | > 100 µM (inactive) | > 100 µM (inactive) | > 100 µM (inactive) | > 100 µM (inactive) | > 100 µM (inactive) |  |  | > 100 µM (inactive) | > 100 µM (inactive) | > 100 µM (inactive) | > 100 µM (inactive) | > 100 µM (inactive) | > 100 µM (inactive) | > 100 µM (inactive) |
